Reference: patent EP2193713A1, “Method for fighting animal pests without damaging pollinating insects” (Bayer CropScience AG, priority 2008, dated 2010)
Read-outs that look alike come from different tables or passages of the source.

Tests used:
Type in all cases: in vivo
Apis mellifera [1] = test: Tunnel test / spray application / bees: acute mortality of pupae in front of the hive; conditions: for Zahl toter Puppen: 150 g a.s./ha
Description: (§1) Der Test wurde gemäß EPPO (European Plant Protection Organisation) Leitlinie 170 wie folgt durchgeführt:
Tabelle 2 (siehe auch Figur 2)

Apis mellifera [2] = test: Tunnel test / spray application / bees: brood development (share of comb cells); conditions: 150 g a.s./ha
Description: as §1
Über alle Waben eines Bienenstocks wird der jeweilige Anteil an Zellen bestimmt, der durch Pollen, Nektar, Eier, Larven oder Puppen belegt ist bzw. leer ist. […]

Apis mellifera [3] = conditions: 150 g a.s./ha
Description: as §1
Die Mortalität von Arbeiterbienen vor dem Bienenstock wird mittels einer Falle für tote Bienen (dead bee trap) bestimmt. Die Falle besteht aus Maschendraht und ist vor dem Bienenstock angebracht. Einzelne, lebende Bienen können die Maschen des Drahts passieren, der Transport toter Bienen durch die Maschen ist nicht möglich, weswegen tote Bienen sich in der Falle ansammeln. Tabelle 1 (siehe auch Figur 1)

Apis mellifera [4] = test: Tunnel test / spray application / bees: foraging activity; conditions: 150 g a.s./ha
Description: as §1
Während einer Minute werden in einem abgegrenzten Bereich von 2 x 1 m^2 die Bienen gezählt, die auf Blüten absitzen. Tabelle 3 (siehe auch Figur 3)

Apis mellifera [5] = test: Greenhouse test / residue test / bees: mortality after contact with treated tomato leaves; conditions: 100 g a.s./ha
Description: Der Versuch wurde wie folgt durchgeführt:
Die Tomatenpflanzen wurden im Gewächshaus mit den Testverbindungen bzw. der Referenzsubstanz behandelt (Spritzappliaktion, 3 fache Wiederholung). 1, 3, 6 und 13 Tage nach Behandlung (DAA) wurden Blätter entnommen (je 5 Blattproben pro Behandlung) und in Boxen gegeben. In jede Box wurden 10 Bienen transferiert und die Boxen wurden unter kontrollierten Bedingungen aufbewahrt, wobei die Bienen mit Zuckerlösung gefüttert wurden. 24, 48 und 72 nach Transfer der Bienen wurde deren Mortalität bestimmt. Tabelle 9 (siehe auch Figur 9)

[6] = leaves taken 1 Tag nach Behandlung, 24 h contact
[7] = leaves taken 1 Tag nach Behandlung, 48 h contact
[8] = leaves taken 1 Tag nach Behandlung, 72 h contact
[9] = leaves taken 3 Tage nach Behandlung, 24 h contact
[10] = leaves taken 3 Tage nach Behandlung, 48 h contact
[11] = leaves taken 3 Tage nach Behandlung, 72 h contact
[12] = leaves taken 6 Tage nach Behandlung, 24 h contact
[13] = leaves taken 6 Tage nach Behandlung, 48 h contact
[14] = leaves taken 6 Tage nach Behandlung, 72 h contact
[15] = leaves taken 13 Tage nach Behandlung, 24 h contact
[16] = leaves taken 13 Tage nach Behandlung, 48 h contact
[17] = leaves taken 13 Tage nach Behandlung, 72 h contact

With `CCOC(=O)NCCOc1ccc(Oc2ccccc2)cc1` [Fenoxycarb, reference compound] the “Zahl toter Puppen” value (Apis mellifera [1]; 0 DAA c (17:15 Uhr)) was 0, the “Zahl toter Puppen” value (Apis mellifera [1]; 1 DAA) was 0 and the “Zahl toter Puppen” value (Apis mellifera [1]; 2 DAA) was 0. For the same molecule, the “Zahl toter Puppen” value (Apis mellifera [1]; 5 DAA) was 0, the “Zahl toter Puppen” value (Apis mellifera [1]; 6 DAA) was 0 and the “Zahl toter Puppen” value (Apis mellifera [1]; 11 DAA) was 9. The “Zahl toter Puppen” value (Apis mellifera [1]; 14 DAA) was 16,7, the “Zahl toter Puppen” value (Apis mellifera [1]; 18 DAA) was 26,7 and the “Zahl toter Puppen” value (Apis mellifera [1]; 21 DAA) was 0. The “Zahl toter Puppen” value (Apis mellifera [1]; 25 DAA) was 1, the “Zahl toter Puppen” value (Apis mellifera [1]; -3 DAA (before application)) was 0 and the “Mortalität von Puppen vor dem Bienenstock” value (Apis mellifera [1]; result in words, tunnel test, spray, I-5 75 und 150 g a.s./ha, Fenoxycarb 150 g a.s./ha) was 11-18 Tage nach Applikation eine Mortalität von Puppen. The “Anteil an Zellen: Eier” value (Apis mellifera [2]; 1 Tag vor Applikation) was 12,5%, the “Anteil an Zellen: Larven” value (Apis mellifera [2]; 1 Tag vor Applikation) was 14,2% and the “Anteil an Zellen: Leer” value (Apis mellifera [2]; 1 Tag vor Applikation) was 25,8%. The “Anteil an Zellen: Nektar” value (Apis mellifera [2]; 1 Tag vor Applikation) was 13,3%, the “Anteil an Zellen: Pollen” value (Apis mellifera [2]; 1 Tag vor Applikation) was 2,2% and the “Anteil an Zellen: Puppen” value (Apis mellifera [2]; 1 Tag vor Applikation) was 31,9%. For the same molecule, the “Anteil an Zellen: Eier” value (Apis mellifera [2]; 6 Tage nach Applikation) was 12,2%, the “Anteil an Zellen: Larven” value (Apis mellifera [2]; 6 Tage nach Applikation) was 0,3% and the “Anteil an Zellen: Leer” value (Apis mellifera [2]; 6 Tage nach Applikation) was 29,7%. The “Anteil an Zellen: Nektar” value (Apis mellifera [2]; 6 Tage nach Applikation) was 20,8%, the “Anteil an Zellen: Pollen” value (Apis mellifera [2]; 6 Tage nach Applikation) was 6,7% and the “Anteil an Zellen: Puppen” value (Apis mellifera [2]; 6 Tage nach Applikation) was 30,3%. For the same molecule, the “Anteil an Zellen: Eier” value (Apis mellifera [2]; 14 Tage nach Applikation) was 18,3%, the “Anteil an Zellen: Larven” value (Apis mellifera [2]; 14 Tage nach Applikation) was 10,6% and the “Anteil an Zellen: Leer” value (Apis mellifera [2]; 14 Tage nach Applikation) was 52,2%. The “Anteil an Zellen: Nektar” value (Apis mellifera [2]; 14 Tage nach Applikation) was 9,2%, the “Anteil an Zellen: Pollen” value (Apis mellifera [2]; 14 Tage nach Applikation) was 5,3% and the “Anteil an Zellen: Puppen” value (Apis mellifera [2]; 14 Tage nach Applikation) was 4,4%. For the same molecule, the “Anteil an Zellen: Eier” value (Apis mellifera [2]; 27 Tage nach Applikation) was 18,6%, the “Anteil an Zellen: Larven” value (Apis mellifera [2]; 27 Tage nach Applikation) was 7,2% and the “Anteil an Zellen: Leer” value (Apis mellifera [2]; 27 Tage nach Applikation) was 23,1%. The “Anteil an Zellen: Nektar” value (Apis mellifera [2]; 27 Tage nach Applikation) was 21,9%, the “Anteil an Zellen: Pollen” value (Apis mellifera [2]; 27 Tage nach Applikation) was 4,7% and the “Anteil an Zellen: Puppen” value (Apis mellifera [2]; 27 Tage nach Applikation) was 24,4%. For the same molecule, the “Zahl der Larven” value (Apis mellifera [2]; result in words, 6 Tage nach Applikation) was “starke Abnahme”, the “Zahl der Puppen” value (Apis mellifera [2]; result in words, 14 Tage nach Applikation) was “starke Abnahme” and the “Zahl toter Arbeiterbienen” value (Apis mellifera [3]; 0 DAA b (15:15 Uhr)) was 0. For the same molecule, the “Zahl toter Arbeiterbienen” value (Apis mellifera [3]; 0 DAA c (17:15 Uhr)) was 0, the “Zahl toter Arbeiterbienen” value (Apis mellifera [3]; 1 DAA) was 1,3 and the “Zahl toter Arbeiterbienen” value (Apis mellifera [3]; 2 DAA) was 0,7. For the same molecule, the “Zahl toter Arbeiterbienen” value (Apis mellifera [3]; 3 DAA) was 0, the “Zahl toter Arbeiterbienen” value (Apis mellifera [3]; 4 DAA) was 2 and the “Zahl toter Arbeiterbienen” value (Apis mellifera [3]; 5 DAA) was 1,3. For the same molecule, the “Zahl toter Arbeiterbienen” value (Apis mellifera [3]; 6 DAA) was 3, the “Zahl toter Arbeiterbienen” value (Apis mellifera [3]; 11 DAA) was 1 and the “Zahl toter Arbeiterbienen” value (Apis mellifera [3]; -3 DAA (before application)) was 1. The “Aktivität der Nahrungssuche, Zahl der Bienen / min / m^2” value (Apis mellifera [4]; 0 DAA a (09:30 Uhr)) was 26,2 Bienen / min / m^2, the “Aktivität der Nahrungssuche, Zahl der Bienen / min / m^2” value (Apis mellifera [4]; 0 DAA c (14:15 Uhr)) was 38,7 Bienen / min / m^2 and the “Aktivität der Nahrungssuche, Zahl der Bienen / min / m^2” value (Apis mellifera [4]; 0 DAA e (17:15 Uhr)) was 46 Bienen / min / m^2. The “Aktivität der Nahrungssuche, Zahl der Bienen / min / m^2” value (Apis mellifera [4]; 1 DAA b (15:30 Uhr)) was 19 Bienen / min / m^2, the “Aktivität der Nahrungssuche, Zahl der Bienen / min / m^2” value (Apis mellifera [4]; 2 DAA) was 32,3 Bienen / min / m^2 and the “Aktivität der Nahrungssuche, Zahl der Bienen / min / m^2” value (Apis mellifera [4]; 3 DAA) was 38,7 Bienen / min / m^2. For the same molecule, the “Aktivität der Nahrungssuche, Zahl der Bienen / min / m^2” value (Apis mellifera [4]; 6 DAA) was 38,8 Bienen / min / m^2, the “Aktivität der Nahrungssuche, Zahl der Bienen / min / m^2” value (Apis mellifera [4]; -1 DAA (before application)) was 27,3 Bienen / min / m^2 and the “Aktivität der Nahrungssuche, Zahl der Bienen / min / m^2” value (Apis mellifera [4]; -2 DAA (before application)) was 33,7 Bienen / min / m^2. The “Aktivität der Nahrungssuche, Zahl der Bienen / min / m^2” value (Apis mellifera [4]; -3 DAA (before application)) was 25 Bienen / min / m^2.
For `O=C1C=C(N(Cc2ccc(Cl)nc2)C2CC2)CO1` [I-9, 4-{[(6-Chlorpyrid-3-yl)methyl](cyclopropyl)amino}furan-2(5H)-on], the Mortalität (Apis mellifera [5]; [6]) was 6%, the Mortalität (Apis mellifera [5]; [7]) was 9% and the Mortalität (Apis mellifera [5]; [8]) was 13%. For the same molecule, the Mortalität (Apis mellifera [5]; [9]) was 2%, the Mortalität (Apis mellifera [5]; [10]) was 3% and the Mortalität (Apis mellifera [5]; [11]) was 4%. It also gave a Mortalität (Apis mellifera [5]; [12]) of 1%, a Mortalität (Apis mellifera [5]; [13]) of 2% and a Mortalität (Apis mellifera [5]; [14]) of 5%. The Mortalität (Apis mellifera [5]; [15]) was 8,7%, the Mortalität (Apis mellifera [5]; [16]) was 11% and the Mortalität (Apis mellifera [5]; [17]) was 12%.
Work on `CN(Cc1ccc(Cl)nc1)C1=CC(=O)OC1` [I-10, 4-{[(6-Chlorpyrid-3-yl)methyl](methyl)amino}furan-2(5H)-on] yielded a Mortalität (Apis mellifera [5]; [6]) of 5%, a Mortalität (Apis mellifera [5]; [7]) of 5% and a Mortalität (Apis mellifera [5]; [8]) of 6%. It also gave a Mortalität (Apis mellifera [5]; [9]) of 3%, a Mortalität (Apis mellifera [5]; [10]) of 7% and a Mortalität (Apis mellifera [5]; [11]) of 8%. For the same molecule, the Mortalität (Apis mellifera [5]; [12]) was 3%, the Mortalität (Apis mellifera [5]; [13]) was 4% and the Mortalität (Apis mellifera [5]; [14]) was 7%. The Mortalität (Apis mellifera [5]; [15]) was 6,7%, the Mortalität (Apis mellifera [5]; [16]) was 6,7% and the Mortalität (Apis mellifera [5]; [17]) was 6,7%.
